What all share (format): cell-based
The target in test [1] is T1, PLK1 (Homo sapiens, UniProt P53350).
T1 construct: endogenous in cells; host or cells: HeLa LgBit (Plk1-HiBit KI): HeLa stably expressing LgBit, with HiBit knocked in at the endogenous Plk1 locus by CRISPR/Cas9
The experiment in a line: Luciferase assay for PLK1 in HeLa LgBit (Plk1-HiBit KI) cell line. The settings on record: compound 300 nM, luminescence after 9 hours. Here is the method:
2. Luciferase Assay for PLK1
(1) Preparation and Culture of HeLa LgBit (Plk1-HiBit KI) Cell Line
A HeLa cell line in which the LgBit vector was transfected and expressed stably was prepared. Then, after constructing gRNA and donor to express the HiBit amino acid sequence behind the C-terminal of the Plk1 gene, which was inherent in the cell, it was inserted into the cell together with a vector capable of expressing CRISPR/Cas9. Only the cells in which the insertion was completed and knock-in had progressed were selected, sub-cultured and used.
(2) Treatment of Compounds of the Present Invention and Method of Luciferase Assay
In the case of HeLa LgBit (Plk1-HiBit KI), the compounds were treated after being released after thymidine block, and the process was as follows. Thymidine (Sigma-Aldrich Cat. No. T9250-5G) was completely dissolved in DW and used in the experiment. For thymidine block, the products were treated with 2 mM of thymidine and then incubated for 24 hours. For release and chemical treatment, the medium was suctioned and washed with 1×PBS. TrypLE™ was added and incubated in 37° C. CO2 incubator for 5 min. Cells neutralized by adding complete media were counted through a counter. For each well of a 96-well culture plate (SPL), 3.3×10^4 cells and a total medium volume of 150 μL were seeded and incubated in a CO2 incubator.
Each cell line was incubated in a CO2 incubator for 18 hours, and Endurazine was added to each well to make up 4% of the total volume. After adding the compound of the present invention in a 96-well white plate (SPL) to a concentration of 300 nM, the wavelength of the plate reader (BMG Labtech, CLARIOstar Plus) was set to […], and then the luminescence was tracked in real time.
In Table 2, Activity represents the ratio of the luminescence value of each Exemplary Compound treatment group to DMSO treatment group (+++: <0.3, ++<0.6, +<0.7).

For test [2], the system named is MRC-5 cell line. The experiment in a line: Cell viability assay for MRC-5 cell line (EZ-Cytox cytotoxicity experiment). The settings on record: Homo sapiens, MRC5, 120 h, MRC-5 normal cell line, 5 days. As for the experimental part: 4. Cell Viability Assay for MRC-5 Cell Line
(1) Culture of MRC-5 Cell Line
Passage of cultured cells was maintained within P15.
(2) Treatment of Compounds of the Present Invention
Then, it was cultured in 37° C.
(3) Cytotoxicity Experiment
CO2 incubator for 4 hours.

In test [3] the test system is H526 cell line. Nature of the test: Cell viability assay for NCI-H526 cell line (EZ-Cytox). The settings on record: Homo sapiens, NCI-H526, 120 h; H526 cells, 3-fold dilutions 3000 nM to 0.46 nM, 5 days. As for the experimental part: (1) Culture of NCI-H526 Cell Line
(2) Treatment of Compounds of the Present Invention and Method of Cell Viability Assay
After treating the compound to each well to make the total volume of 200 μL, it was cultured in a CO2 incubator (Thermo Fisher Science, Cat. No. 4111) for 5 days.
The absorbance of the completely cultured sample was measured by setting the wavelength of a plate reader (BMG Labtech, CLARIOstar Plus) to […], and was measured after shaking for 3 minutes in a plate reader before measurement.
In Table 3, Activity represents IC50 value of each Exemplary Compound treatment group to H526 cell line (A: <30 nM, B: <50 nM, C: <100 nM, D: <200 nM, E: <400 nM).

The mark [4] stands for this setting: highest concentration 10000 nM, N.D. = no cytotoxicity until 10 μM, read-out: Activity: IC50 value to MRC-5 cell line, N.D. cells.
Where [5] appears, read: 3-fold dilutions 10000 nM to 1.52 nM, Exemplary Compounds, numeric values, read-out: Activity: IC50 value (nM) to MRC-5 cell line.

Consider eleven molecules from US20250101025A1, “NOVEL PLK1 DEGRADATION INDUCING COMPOUND” (UPPTHERA, INC., priority 2021, published 2025).

The structures appear in SMILES notation. Read-outs that look alike come from different tables or passages of the source.

T1 sequence (P53350 whole entry): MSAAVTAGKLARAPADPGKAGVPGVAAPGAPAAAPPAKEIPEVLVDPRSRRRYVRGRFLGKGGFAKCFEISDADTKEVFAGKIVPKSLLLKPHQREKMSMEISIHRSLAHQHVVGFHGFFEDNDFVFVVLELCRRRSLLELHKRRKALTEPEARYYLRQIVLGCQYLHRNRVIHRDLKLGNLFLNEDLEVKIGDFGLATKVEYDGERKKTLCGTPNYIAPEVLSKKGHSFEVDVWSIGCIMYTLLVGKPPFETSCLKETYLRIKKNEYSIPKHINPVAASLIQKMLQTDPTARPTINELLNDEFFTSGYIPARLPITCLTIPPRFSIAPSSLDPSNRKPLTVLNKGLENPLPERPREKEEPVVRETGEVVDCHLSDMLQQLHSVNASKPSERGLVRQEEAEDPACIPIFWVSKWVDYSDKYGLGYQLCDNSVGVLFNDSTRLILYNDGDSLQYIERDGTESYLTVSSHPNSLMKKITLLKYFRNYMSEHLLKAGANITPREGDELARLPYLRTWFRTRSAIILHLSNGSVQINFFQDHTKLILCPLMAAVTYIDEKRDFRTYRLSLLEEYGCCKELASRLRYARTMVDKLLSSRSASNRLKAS

For the molecule `COc1cc(C(=O)NC2CCC(N(C)CC3CCN(c4ccc(NC5CCC(=O)NC5=O)cc4F)CC3)CC2)ccc1Nc1ncc2c(n1)N(C1CCCC1)CC(F)(F)C(=O)N2C` (centres unmarked) [Compound 34, 4-((9-cyclopentyl-7,7-difluoro-5-methyl-6-oxo-6,7,8,9-tetrahydro-5H-pyrimido[4,5-b][1,4]diazepin-2-yl)amino)-N-((1r,4r)-4-(((1-(4-((2,6-dioxopiperidin-3-yl)amino)-2-fluorophenyl)piperidin-4-yl)methyl)(methyl)amino)cyclohexyl)-3-methoxybenzamide], the “Activity: ratio of the luminescence value of each Exemplary Compound treatment group to DMSO treatment group” value (shortened to “Activity: ratio”) in test [1] is given as “+++ (+++: <0.3)”. Further, the IC50 was greater than 10000 nM in test [2] (setting [4]) and less than 30 nM in test [3].
`COc1cc(C(=O)NC2CC3(CCN(CC4CCN(c5ccc(OC6CCC(=O)NC6=O)cc5F)CC4)CC3)C2)ccc1Nc1ncc2c(n1)N(C(C)C)CC(F)(F)C(=O)N2C` (centres unmarked) [Compound 35, 4-((7,7-difluoro-9-isopropyl-5-methyl-6-oxo-6,7,8,9-tetrahydro-5H-pyrimido[4,5-b][1,4]diazepin-2-yl)amino)-N-(7-((1-(4-((2,6-dioxopiperidin-3-yl)oxy)-2-fluorophenyl)piperidin-4-yl)methyl)-7-azaspiro[3.5]nonan-2-yl)-3-methoxybenzamide]: the “Activity: ratio” value in test [1] was “+++ (+++: <0.3)”. Moreover, the IC50 in test [2] (setting [5]) is 16900 nM; in test [3], less than 50 nM.
In the case of `COc1cc(C(=O)NN2CCC(CN3CCN(c4ccc(NC5CCC(=O)NC5=O)cc4C(F)(F)F)CC3)CC2)ccc1Nc1ncc2c(n1)N(C(C)C)CC(F)(F)C(=O)N2C` (centres unmarked) [Compound 21, 4-((7,7-difluoro-9-isopropyl-5-methyl-6-oxo-6,7,8,9-tetrahydro-5H-pyrimido[4,5-b][1,4]diazepin-2-yl)amino)-N-(4-((4-(4-((2,6-dioxopiperidin-3-yl)amino)-2-(trifluoromethyl)phenyl)piperazin-1-yl)methyl)piperidin-1-yl)-3-methoxybenzamide], the “Activity: ratio” value in test [1] was “++ (++<0.6)”. In addition, the IC50 in test [2] (setting [4]) was greater than 10000 nM; in test [3], less than 100 nM.
Consider `COc1cc(C(=O)NC2CCN(C(=O)CCN3CCN(c4ccc(C(=O)NC5CCC(=O)NC5=O)nc4)CC3)CC2)ccc1Nc1ncc2c(n1)N(C1CCCC1)CC(F)(F)C(=O)N2C` (centres unmarked) [Compound 7, 5-(4-(3-(4-(4-((9-cyclopentyl-7,7-difluoro-5-methyl-6-oxo-6,7,8,9-tetrahydro-5H-pyrimido[4,5-b][1,4]diazepin-2-yl)amino)-3-methoxybenzamido)piperidin-1-yl)-3-oxopropyl)piperazin-1-yl)-N-(2,6-dioxopiperidin-3-yl)picolinamide], for which, in test [1], the “Activity: ratio” value is reported as “+ (+<0.7)”.
`COc1cc(C(=O)NN2CCC(CCN3CCN(c4ccc(N(C)C5CCC(=O)NC5=O)cc4F)CC3)CC2)ccc1Nc1ncc2c(n1)N(C1CCCC1)CC(F)(F)C(=O)N2C` (centres unmarked) [Compound 23, 4-((9-cyclopentyl-7,7-difluoro-5-methyl-6-oxo-6,7,8,9-tetrahydro-5H-pyrimido[4,5-b][1,4]diazepin-2-yl)amino)-N-(4-(2-(4-(4-((2,6-dioxopiperidin-3-yl)(methyl)amino)-2-fluorophenyl)piperazin-1-yl)ethyl)piperidin-1-yl)-3-methoxybenzamide]: in test [1], the “Activity: ratio” value was “+++ (+++: <0.3)”. Moreover, the IC50 in test [2] (setting [4]) is greater than 10000 nM; in test [3], less than 30 nM.
For `COc1cc(C(=O)NN2CCC(N3CC4(CCN(c5ccc(N(C)C6CCC(=O)NC6=O)cc5F)CC4)C3)CC2)ccc1Nc1ncc2c(n1)N(C(C)C)CC(F)(F)C(=O)N2C` (centres unmarked) [Compound 33, 4-((7,7-difluoro-9-isopropyl-5-methyl-6-oxo-6,7,8,9-tetrahydro-5H-pyrimido[4,5-b][1,4]diazepin-2-yl)amino)-N-(4-(7-(4-((2,6-dioxopiperidin-3-yl)(methyl)amino)-2-fluorophenyl)-2,7-diazaspiro[3.5]nonan-2-yl)piperidin-1-yl)-3-methoxybenzamide], the “Activity: ratio” value in test [1] was “++ (++<0.6)”. Further, the values for the IC50 in test [2] (setting [5]) and in test [3] were 25000 nM and less than 50 nM, respectively.
In the case of `COc1cc(C(=O)NC2CC3(CCN(CC4CCN(c5ccc6c(N7CCC(=O)NC7=O)nn(C)c6c5)CC4)CC3)C2)ccc1Nc1ncc2c(n1)N(C1CCCC1)CC(F)(F)C(=O)N2C` [Compound 40, 4-((9-cyclopentyl-7,7-difluoro-5-methyl-6-oxo-6,7,8,9-tetrahydro-5H-pyrimido[4,5-b][1,4]diazepin-2-yl)amino)-N-(7-((1-(3-(2,4-dioxotetrahydropyrimidin-1 (2H)-yl)-1-methyl-1H-indazol-6-yl)piperidin-4-yl)methyl)-7-azaspiro[3.5]nonan-2-yl)-3-methoxybenzamide], in test [3], the IC50 was less than 30 nM.
Consider `COc1cc(C(=O)NC2CCN(C(=O)CCN3CCN(c4ccc(C(=O)NC5CCC(=O)NC5=O)cc4)CC3)CC2)ccc1Nc1ncc2c(n1)N(C1CCCC1)CC(F)(F)C(=O)N2C` (centres unmarked) [Compound 4, 4-((9-cyclopentyl-7,7-difluoro-5-methyl-6-oxo-6,7,8,9-tetrahydro-5H-pyrimido[4,5-b][1,4]diazepin-2-yl)amino)-N-(1-(3-(4-(4-((2,6-dioxopiperidin-3-yl)carbamoyl)phenyl)piperazin-1-yl)propanoyl)piperidin-4-yl)-3-methoxybenzamide], for which the “Activity: ratio” value in test [1] is listed as “+ (+<0.7)”.
Consider `COc1cc(C(=O)NN2CCC(N3CC4(CCN(c5cccc6c5n(C)c(=O)n6C5CCC(=O)NC5=O)CC4)C3)CC2)ccc1Nc1ncc2c(n1)N(C(C)C)CC(F)(F)C(=O)N2C` (centres unmarked) [Compound 41, 4-((7,7-difluoro-9-isopropyl-5-methyl-6-oxo-6,7,8,9-tetrahydro-5H-pyrimido[4,5-b][1,4]diazepin-2-yl)amino)-N-(4-(7-(1-(2,6-dioxopiperidin-3-yl)-3-methyl-2-oxo-2,3-dihydro-1H-benzo[d]imidazol-4-yl)-2,7-diazaspiro[3.5]nonan-2-yl)piperidin-1-yl)-3-methoxybenzamide], for which the “Activity: ratio” value in test [1] is recorded as “+ (+<0.7)”.
Consider `COc1cc(C(=O)NN2CCC(N3CC4(CCN(c5ccc(N(C)C6CCC(=O)NC6=O)cc5)CC4)C3)CC2)ccc1Nc1ncc2c(n1)N(C(C)C)CC(F)(F)C(=O)N2C` (centres unmarked) [Compound 31, 4-((7,7-difluoro-9-isopropyl-5-methyl-6-oxo-6,7,8,9-tetrahydro-5H-pyrimido[4,5-b][1,4]diazepin-2-yl)amino)-N-(4-(7-(4-((2,6-dioxopiperidin-3-yl)(methyl)amino)phenyl)-2,7-diazaspiro[3.5]nonan-2-yl)piperidin-1-yl)-3-methoxybenzamide], for which the “Activity: ratio” value in test [1] is “++ (++<0.6)”. Further, the IC50 in test [3] was less than 100 nM.
`COc1cc(C(=O)NC2CC3(CCN(CC4CCN(c5ccc(N(C)C6CCC(=O)NC6=O)cc5)CC4)CC3)C2)ccc1Nc1ncc2c(n1)N(C(C)C)CC(F)(F)C(=O)N2C` (centres unmarked) [Compound 27, 4-((7,7-difluoro-9-isopropyl-5-methyl-6-oxo-6,7,8,9-tetrahydro-5H-pyrimido[4,5-b][1,4]diazepin-2-yl)amino)-N-(7-((1-(4-((2,6-dioxopiperidin-3-yl)(methyl)amino)phenyl)piperidin-4-yl)methyl)-7-azaspiro[3.5]nonan-2-yl)-3-methoxybenzamide]: in test [1], the “Activity: ratio” value was “+++ (+++: <0.3)”. The molecule further returned an IC50 in test [3] of less than 30 nM.
